Each structure is given as a SMILES string.

For one assay, the target named is MAGE-A11:PCF11 (Homo sapiens (Human), UniProt P43364). Briefly: TR-FRET single point screening at 15 μM. The format is binding. Details: unit not given here. To be noted: single point TR-FRET screening at 15 μM against MAGE-A11:PCF11. Summed up: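 Single-point screen at 15 μM (0.25% DMSO) measuring disruption of GST-MAGEA11 (5 nM) binding to FAM-PCF11_4 peptide (200 nM) detected by Tb-anti-GST (5 nM). Buffer 50 mM Tris pH 7.5, 20 mM MgCl2, 0.1 mg/ml BSA, 1 mM DTT; 90 min at ~25 °C; 520/490 nm ratio converted to % inhibition versus controls.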
Sequence of MAGE-A11:PCF11 (P43364 218-429): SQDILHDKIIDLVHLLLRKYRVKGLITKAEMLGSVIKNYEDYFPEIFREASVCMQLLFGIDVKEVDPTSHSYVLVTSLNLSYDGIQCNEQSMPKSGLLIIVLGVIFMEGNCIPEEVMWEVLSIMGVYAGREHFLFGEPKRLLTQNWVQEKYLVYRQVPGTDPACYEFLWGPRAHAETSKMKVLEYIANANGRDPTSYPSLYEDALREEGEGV
(In TR-FRET formats the signal depends on donor and acceptor labels being close together.)
Turning to `Clc1ccc2c(NC3CCN(Cc4ccc(Br)o4)CC3)ccnc2c1` [SJ000357512], the TR-FRET signal is listed as −4.381.
Same read-out and setting: the result for `Clc1ccc2c(NC3CCN(Cc4ccccc4)CC3)ccnc2c1` [SJ000357524] reads 6.554.
The same measure, in the same setting: the result for `COc1cccc(CN2CCC(Nc3ccnc4cc(Cl)ccc34)CC2)c1O` [SJ000357525] reads 9.995.
Still for that read-out and setting: the result for `COc1ccc(O)c(CN2CCC(Nc3ccnc4cc(Cl)ccc34)CC2)c1` [SJ000357527] reads 7.779; that for `Oc1ccccc1CN1CCC(Nc2ccnc3cc(Cl)ccc23)CC1` [SJ000357529], 22.15; that for `CC(C)(C)CCN(CCCCNc1ccnc2cc(Cl)ccc12)Cc1ccccc1` [SJ000357537], 34.54.
Turning to `CCCCN(CCCCNc1ccnc2cc(Cl)ccc12)Cc1ccccc1` [SJ000357538], the TR-FRET signal is 27.64.
The same measure, in the same setting: the result for `Clc1ccc2c(NCCCCN(CCOCc3ccccc3)Cc3ccccc3)ccnc2c1` [SJ000357543] reads −15.92; that for `COc1ccc2nc3cc(Cl)ccc3c(NCCCNCc3ccc4c(c3)OCO4)c2c1` [SJ000361085], −363.3.
The compound `COc1ccc2nc3cc(Cl)ccc3c(NCCCNCc3ccccc3)c2c1` [SJ000361086] registered a TR-FRET signal of −432.4.
Still for that read-out and setting: the result for `COc1ccc2nc3cc(Cl)ccc3c(NCCCNCC3CC3)c2c1` [SJ000361087] reads −502.4; that for `COc1ccc2nc3cc(Cl)ccc3c(NCCCNCc3cccs3)c2c1` [SJ000361088], −453.5; that for `COc1ccc2nc3cc(Cl)ccc3c(NCCCNCc3ccc(C)o3)c2c1` [SJ000361089], −229.
Same read-out and setting: the result for `COc1ccc2nc3cc(Cl)ccc3c(NCCCNCC3CCCCC3)c2c1` [SJ000361090] reads −411.2; that for `COc1ccc2nc3cc(Cl)ccc3c(NCCCNCc3cc(F)ccc3F)c2c1` [SJ000361091], −327.2.
`CCC(CC)CNCCCNc1c2ccc(Cl)cc2nc2ccc(OC)cc12` [SJ000361092]: the TR-FRET signal was −427.4.
The compound `CCC(C)CNCCCNc1c2ccc(Cl)cc2nc2ccc(OC)cc12` (stereo not drawn) [SJ000361093] displayed a TR-FRET signal of −451.5.
`COc1ccc2nc3cc(Cl)ccc3c(NCCCNCc3sccc3C)c2c1` [SJ000361094] had a TR-FRET signal of −321.3.
Same read-out and setting: the result for `COc1ccc2nc3cc(Cl)ccc3c(NCCCNCc3ccccc3C(F)(F)F)c2c1` [SJ000361095] reads −169.5; that for `CCCNCCCNc1c2ccc(Cl)cc2nc2ccc(OC)cc12` [SJ000361096], −498.5.
Same read-out and setting: the result for `CCCCCCNCCCNc1c2ccc(Cl)cc2nc2ccc(OC)cc12` [SJ000361097] reads −281.7; that for `COc1ccc2nc3cc(Cl)ccc3c(NCCCNCCC(C)SC)c2c1` (stereo not drawn) [SJ000361098], −514.5.

The assay is the same for the next values; noted with them: single point TR-FRET screening of quinoline compounds against MAGE-A11:PCF11; 15 μM.
Consider `CCCN(CCCNc1ccnc2cc(Cl)ccc12)CC(C)C` [SJ000357568], for which the TR-FRET signal was 11.45.
Same read-out and setting: the result for `CCCN(CCCNc1ccnc2cc(Cl)ccc12)CCC(C)(C)C` [SJ000357570] reads 12.11; that for `CCCCN(CCC)CCCNc1ccnc2cc(Cl)ccc12` [SJ000357571], 12.78.
On the same count and under the same terms, the result for `CCCN(CCCNc1ccnc2cc(Cl)ccc12)CCC(C)c1ccccc1` (stereo not drawn) [SJ000357573] reads 24.98; that for `CCCN(CCCNc1ccnc2cc(Cl)ccc12)CCc1ccccc1` [SJ000357574], 4.884.
The same measure, in the same setting: the result for `CCCN(CCCNc1ccnc2cc(Cl)ccc12)CCCSC` [SJ000357576] reads 7.824.
`CCCN(CCCNc1ccnc2cc(Cl)ccc12)CCOCc1ccccc1` [SJ000357577]: the TR-FRET signal is given as −13.18.
In turn, `CC(C)(C)CCN(CCCNc1ccnc2cc(Cl)ccc12)Cc1ccccc1` [SJ000357578] gave a TR-FRET signal of 25.69.
On the same count and under the same terms, the figure for `CCCCN(CCCNc1ccnc2cc(Cl)ccc12)Cc1ccccc1` [SJ000357579] is 19.31; for `Clc1ccc2c(NCCCN(CCc3ccccc3)Cc3ccccc3)ccnc2c1` [SJ000357580] it is 14.41; for `Clc1ccc2c(NCCCN(CCOCc3ccccc3)Cc3ccccc3)ccnc2c1` [SJ000357583] it is 13.24.
The compound `CCCN(CCCNc1ccnc2cc(Cl)ccc12)Cc1cccc2c1OCO2` [SJ000357594] displayed a TR-FRET signal of 18.14.
Compound `CCCN(CCCNc1ccnc2cc(Cl)ccc12)Cc1ccccc1OC(F)(F)F` [SJ000357595] had a TR-FRET signal of −21.87.
`CCCN(CCCNc1ccnc2cc(Cl)ccc12)Cc1cc(F)cc(F)c1O` [SJ000357597] yielded a TR-FRET signal of 15.96.
With `Clc1ccc2c(NCCCN(Cc3ccccc3)Cc3cccc4c3OCO4)ccnc2c1` [SJ000357598], the TR-FRET signal came to 3.49.
Same read-out and setting: the result for `FC(F)(F)Oc1ccccc1CN(CCCNc1ccnc2cc(Cl)ccc12)Cc1ccccc1` [SJ000357599] reads 19.76.
`COc1ccc2nc3cc(Cl)ccc3c(NCCCNCc3ccc[nH]3)c2c1` [SJ000361084] returned a TR-FRET signal of 0.9854.
Still for that read-out and setting: the figure for `COc1ccc2nc3cc(Cl)ccc3c(NCCCNCc3c4ccccc4cc4ccccc34)c2c1` [SJ000361099] is −3.728.
As to `Clc1ccc2c(NCCCNCC3CC3)ccnc2c1` [SJ000361101], the TR-FRET signal is recorded as 11.47.
`Clc1ccc2c(NCCCNCC3CCCCC3)ccnc2c1` [SJ000361102] gave a TR-FRET signal of 15.63.
In turn, `CCC(CC)CNCCCNc1ccnc2cc(Cl)ccc12` [SJ000361103] displayed a TR-FRET signal of 16.55.
On the same count and under the same terms, the figure for `CCC(C)CNCCCNc1ccnc2cc(Cl)ccc12` (stereo not drawn) [SJ000361104] is 9.822.
`FC(F)(F)c1ccc2c(NCCCNCc3ccc[nH]3)ccnc2c1` [SJ000361105] had a TR-FRET signal of 41.69.
For the compound `FC(F)(F)c1ccc2c(NCCCNCC3CC3)ccnc2c1` [SJ000361108], the TR-FRET signal was found to be 22.81.
The same measure, in the same setting: the figure for `Cc1ccc(CNCCCNc2ccnc3cc(C(F)(F)F)ccc23)o1` [SJ000361109] is 14.45; for `FC(F)(F)c1ccc2c(NCCCNCC3CCCCC3)ccnc2c1` [SJ000361110] it is 27.12.
On the same count and under the same terms, the figure for `CCC(CC)CNCCCNc1ccnc2cc(C(F)(F)F)ccc12` [SJ000361111] is 24.33; for `CCC(C)CNCCCNc1ccnc2cc(C(F)(F)F)ccc12` (stereo not drawn) [SJ000361112] it is 18.47.
Same read-out and setting: the figure for `FC(F)(F)c1ccc2c(NCCCNCc3ccco3)ccnc2c1` [SJ000361113] is 18.05.
Compound `CCCNCCCNc1ccnc2cc(Cl)ccc12` [SJ000361119] showed a TR-FRET signal of 9.785.
On the same count and under the same terms, the figure for `CCCCCCNCCCNc1ccnc2cc(Cl)ccc12` [SJ000361120] is 22.25.
On the same count and under the same terms, the result for `CSC(C)CCNCCCNc1ccnc2cc(Cl)ccc12` (stereo not drawn) [SJ000361121] reads 13.5; that for `CCCNCCCNc1ccnc2cc(C(F)(F)F)ccc12` [SJ000361123], 12.82; that for `CCCCCCNCCCNc1ccnc2cc(C(F)(F)F)ccc12` [SJ000361124], 31.61.
In the case of `CSC(C)CCNCCCNc1ccnc2cc(C(F)(F)F)ccc12` (stereo not drawn) [SJ000361125], the TR-FRET signal turned out to be 24.46.
On the same count and under the same terms, the result for `Clc1ccc2c(NCCCN(Cc3ccccc3)Cc3ccccc3)ccnc2c1` [SJ000361166] reads 14.76; that for `Oc1ccccc1CN(CCCNc1ccnc2cc(Cl)ccc12)Cc1ccccc1` [SJ000361167], 19.27.
Same read-out and setting: the figure for `FC(F)(F)c1ccccc1CN(CCCNc1ccnc2cc(Cl)ccc12)Cc1ccccc1` [SJ000361168] is 2.509.
Turning to `Cc1cc(C)c(CN(CCCNc2ccnc3cc(Cl)ccc23)Cc2ccccc2)c(C)c1` [SJ000361169], the TR-FRET signal is recorded as 31.19.
Still for that read-out and setting: the result for `Clc1ccc2c(NCCCN(Cc3ccccc3)Cc3ccoc3)ccnc2c1` [SJ000361170] reads 12.84.
Still for that read-out and setting: the result for `Clc1ccc2c(NCCCN(Cc3ccccc3)CC3CCCCC3)ccnc2c1` [SJ000361171] reads 28.21.
Still for that read-out and setting: the figure for `CCC(CC)CN(CCCNc1ccnc2cc(Cl)ccc12)Cc1ccccc1` [SJ000361172] is 22.91.
`CCCCCN(CCCNc1ccnc2cc(Cl)ccc12)Cc1ccccc1` [SJ000361173] yielded a TR-FRET signal of 26.56.
As for `Fc1ccc(CN(CCCNc2ccnc3cc(Cl)ccc23)Cc2ccccc2)cc1F` [SJ000361174], the TR-FRET signal is 27.55.
Same read-out and setting: the result for `Fc1ccccc1CN(CCCNc1ccnc2cc(Cl)ccc12)Cc1ccccc1` [SJ000361175] reads 0.9627.
Same read-out and setting: the result for `Fc1cccc(CN(CCCNc2ccnc3cc(Cl)ccc23)Cc2ccccc2)c1` [SJ000361176] reads 20.36.
Compound `O=[N+]([O-])c1ccccc1CN(CCCNc1ccnc2cc(Cl)ccc12)Cc1ccccc1` [SJ000361177] showed a TR-FRET signal of 16.42.
For the compound `O=[N+]([O-])c1cccc(CN(CCCNc2ccnc3cc(Cl)ccc23)Cc2ccccc2)c1` [SJ000361178], the TR-FRET signal is 17.02.
Same read-out and setting: the result for `O=[N+]([O-])c1ccc(CN(CCCNc2ccnc3cc(Cl)ccc23)Cc2ccccc2)cc1` [SJ000361179] reads 20.2; that for `O=C(O)c1ccccc1CN(CCCNc1ccnc2cc(Cl)ccc12)Cc1ccccc1` [SJ000361180], 9.598; that for `Clc1ccc2c(NCCCN(Cc3ccccc3)Cc3cccc4ccccc34)ccnc2c1` [SJ000361181], 26.23.
The same measure, in the same setting: the figure for `Clc1ccc2c(NCCCN(Cc3ccccc3)Cc3ccc4ccccc4c3)ccnc2c1` [SJ000361182] is 22.05.
`Cc1cccc(CN(CCCNc2ccnc3cc(Cl)ccc23)Cc2ccccc2)c1` [SJ000361183]: the TR-FRET signal was determined as 6.02.

The record behind these values is patent US20240246941A1, “SUBSTITUTED 4-(3-AMINOPROP-1-YL)AMINOQUINOLINE ANALOGS AS MODULATORS OF MELANOMA-ASSOCIATED ANTIGEN 11 UBIQUITIN LIGASE” (ST. JUDE CHILDREN'S RESEARCH HOSPITAL, INC., priority 2020, published 2024).
